Laboratory results as given in US8747362B2, “Microneedle device” (Hisamitsu Pharmaceutical Co., Inc, priority 2009, dated 2014).

What was measured:
[1] = Viscosity measurement of carrier (coating agent) by micron-sample viscometer; type: physicochemical; details: 25° C., average of 10
Description: • Material: Polylactic acid having a weight average molecular weight of about 80,000, Height: 500 μm, Density: 625 needles/cm^2, Formulation area of a microneedle base: 1 cm^2/patch (b) Metal Mask Plate • Pitch: 400 μm, Mask thickness: 100 μm, Opening: square shape (one side: 250 μm) (c) Environmental Setting: Room Temperature (25° C.)
The concentration of octreotide acetate and the concentration of propylene glycol or glycerin were set as shown in Table 3 and Table 4, and the materials were set in a rotating/revolving mixer to prepare a carrier (a coating agent). The viscosity of the obtained carrier (the coating agent) was measured 10 times by use of a micron-sample viscometer (RHEOSENSE INC., Micron Sample-Viscometer/Rheometer-on-a-chip VROCTM); calculated average values are shown in. Table 3 and Table 4.

[2] = Content (amount deposited) of octreotide acetate per patch of microneedle device, BCA method; type: physicochemical; details: average of 10
Description: • Material: Polylactic acid having a weight average molecular weight of about 80,000, Height: 500 μm, Density: 625 needles/cm^2, Formulation area of a microneedle base: 1 cm^2/patch (b) Metal Mask Plate • Pitch: 400 μm, Mask thickness: 100 μm, Opening: square shape (one side: 250 μm) (c) Environmental Setting: Room Temperature (25° C.) The concentration of octreotide acetate and the concentration of propylene glycol or glycerin were set as shown in Table 3 and Table 4, and the materials were set in a rotating/revolving mixer to prepare a carrier (a coating agent). Application of the carrier (the coating agent) to microneedles was performed by a predetermined method. More specifically, the carrier the coating agent) was swept by a spatula to fill openings of a metal mask with the carrier. Microneedles (needles) were inserted in the openings thus filled, and then taken out therefrom, and subsequently, the carrier (the coating agent) thus applied on the microneedles was extracted by purified water. By a BCA method (an octreotide standard), the content (an amount deposited) of octreotide acetate per one patch (sheet) of a microneedle device was measured 10 times; calculated average values are shown in Table 3 and Table 4.

[3] = carrier: octreotide acetate 20 / glycerin 80 % by weight
[4] = carrier: octreotide acetate 20 / propylene glycol 80 % by weight
[5] = carrier: octreotide acetate 30 / glycerin 70 % by weight
[6] = carrier: octreotide acetate 35 / glycerin 65 % by weight
[7] = carrier: octreotide acetate 40 / glycerin 60 % by weight
[8] = carrier: octreotide acetate 40 / propylene glycol 60 % by weight
[9] = carrier: octreotide acetate 50 / glycerin 50 % by weight
[10] = carrier: octreotide acetate 50 / propylene glycol 50 % by weight
[11] = carrier: octreotide acetate 60 / glycerin 40 % by weight
[12] = carrier: octreotide acetate 60 / propylene glycol 40 % by weight
[13] = carrier: octreotide acetate 70 / propylene glycol 30 % by weight
[14] = carrier: octreotide acetate 80 / propylene glycol 20 % by weight

C[C@@H](O)[C@@H]1NC(=O)[C@H](CCCCN)NC(=O)[C@@H](Cc2c[nH]c3ccccc23)NC(=O)[C@H](Cc2ccccc2)NC(=O)[C@@H](NC(=O)[C@H](N)Cc2ccccc2)CSSC[C@@H](C(=O)N[C@H](CO)[C@@H](C)O)NC1=O [Octreotide acetate, octreotide acetate]
Viscosity Avg. [1, 3]: 2900 cps | Viscosity Avg. [1, 4]: 200 cps | Viscosity Avg. [1, 5]: 9000 cps | Viscosity Avg. [1, 6]: 12000 cps | Viscosity Avg. [1, 7]: 15000 cps | Viscosity Avg. [1, 8]: 1600 cps | Viscosity Avg. [1, 9]: 21000 cps | Viscosity Avg. [1, 10]: 5400 cps | Viscosity Avg. [1, 11]: 27000 cps | Viscosity Avg. [1, 12]: 15000 cps | Viscosity Avg. [1, 13]: 45000 cps | Viscosity Avg. [1, 14]: 133000 cps | Content Avg. [2, 3]: 6 μg/patch | Content Avg. [2, 4]: 4 μg/patch | Content Avg. [2, 5]: 39 μg/patch | Content Avg. [2, 6]: 53 μg/patch | Content Avg. [2, 7]: 89 μg/patch | Content Avg. [2, 8]: 36 μg/patch | Content Avg. [2, 9]: 169 μg/patch | Content Avg. [2, 10]: 121 μg/patch | Content Avg. [2, 11]: 149 μg/patch | Content Avg. [2, 12]: 243 μg/patch | Content Avg. [2, 13]: 237 μg/patch | Content Avg. [2, 14]: 97 μg/patch
